This is an account of results in PMC6060247, “Disruption of Amino Acid Homeostasis by Novel ASCT2 Inhibitors Involves Multiple Targets” (Frontiers in Pharmacology, 2018).

The target of assay [1] is T1, SNAT1 (SLC38A1) (Homo sapiens, UniProt Q9H2H9).
T1 sequence (Q9H2H9 1-487): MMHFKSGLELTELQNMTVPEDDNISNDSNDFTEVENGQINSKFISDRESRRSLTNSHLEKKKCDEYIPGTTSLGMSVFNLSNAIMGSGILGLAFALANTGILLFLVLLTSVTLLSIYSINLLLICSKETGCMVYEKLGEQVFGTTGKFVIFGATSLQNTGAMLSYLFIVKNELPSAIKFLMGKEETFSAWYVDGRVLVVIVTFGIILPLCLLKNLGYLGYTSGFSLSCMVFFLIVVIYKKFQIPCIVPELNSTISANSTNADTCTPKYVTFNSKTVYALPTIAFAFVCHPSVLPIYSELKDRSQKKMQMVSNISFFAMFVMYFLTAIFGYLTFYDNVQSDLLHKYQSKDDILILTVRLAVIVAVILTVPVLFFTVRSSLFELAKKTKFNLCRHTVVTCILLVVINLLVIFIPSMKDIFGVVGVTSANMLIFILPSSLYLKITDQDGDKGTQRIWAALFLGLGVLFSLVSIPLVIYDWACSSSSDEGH
Put plainly: glutamine uptake in Xenopus laevis oocytes expressing hSNAT1. Format: cell-based.

Assay [2] addresses T2, LAT1 (SLC7A5) (Rattus norvegicus, UniProt Q63016).
T2 construct: with human 4F2hc
Nature of the assay: isoleucine uptake in Xenopus laevis oocytes expressing h4F2hc/rLAT1. Format: cell-based.

Structures are written as SMILES.

T2 sequence (Q63016 whole entry): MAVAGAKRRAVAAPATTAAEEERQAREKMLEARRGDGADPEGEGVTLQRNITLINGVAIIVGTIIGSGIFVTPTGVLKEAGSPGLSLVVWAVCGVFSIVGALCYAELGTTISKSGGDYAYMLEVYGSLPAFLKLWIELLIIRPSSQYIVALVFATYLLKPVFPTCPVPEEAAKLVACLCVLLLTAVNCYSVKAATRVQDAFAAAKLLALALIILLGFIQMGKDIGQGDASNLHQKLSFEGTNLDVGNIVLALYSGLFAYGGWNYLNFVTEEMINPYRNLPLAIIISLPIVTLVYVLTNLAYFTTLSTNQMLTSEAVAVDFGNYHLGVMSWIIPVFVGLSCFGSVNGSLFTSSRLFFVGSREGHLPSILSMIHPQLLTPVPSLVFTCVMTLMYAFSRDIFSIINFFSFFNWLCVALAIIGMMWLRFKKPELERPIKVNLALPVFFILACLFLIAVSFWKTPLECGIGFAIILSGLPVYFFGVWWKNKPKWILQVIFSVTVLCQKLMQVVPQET
T2 sequence (P08195 103-630 partner): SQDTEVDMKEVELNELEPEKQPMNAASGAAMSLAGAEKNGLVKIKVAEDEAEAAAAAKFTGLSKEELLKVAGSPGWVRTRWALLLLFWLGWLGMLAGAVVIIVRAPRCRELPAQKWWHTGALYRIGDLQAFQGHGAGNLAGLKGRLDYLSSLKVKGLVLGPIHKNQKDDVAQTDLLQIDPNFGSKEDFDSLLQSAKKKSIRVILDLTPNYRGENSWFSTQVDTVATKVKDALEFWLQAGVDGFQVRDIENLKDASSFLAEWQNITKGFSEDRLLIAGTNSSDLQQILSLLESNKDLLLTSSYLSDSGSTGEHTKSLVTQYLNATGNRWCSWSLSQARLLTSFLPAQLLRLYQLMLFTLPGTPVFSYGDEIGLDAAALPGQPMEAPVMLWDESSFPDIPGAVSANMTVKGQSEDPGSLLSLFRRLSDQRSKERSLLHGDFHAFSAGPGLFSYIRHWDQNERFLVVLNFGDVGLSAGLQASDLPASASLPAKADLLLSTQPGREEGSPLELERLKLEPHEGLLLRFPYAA

Turning to `NC(=O)CC[C@H](N)C(=O)O` [glutamine], in assay [1], the “glutamine uptake in Xenopus laevis oocytes expressing hSNAT1” value was “Glutamine uptake was used to measure hSNAT1, hSNAT2, and hASCT2 activity”.

For the molecule `CC[C@H](C)[C@H](N)C(=O)O` [isoleucine], the “isoleucine uptake in Xenopus laevis oocytes expressing h4F2hc/rLAT1” value in assay [2] is given as “isoleucine transport was used to measure h4F2hc/rLAT1 activity”.
